Data from ChEMBL document CHEMBL4831537, “Biotransformation of Betulonic Acid by the Fungus Rhizopus arrhizus CGMCC 3.868 and Antineuroinflammatory Activity of the Biotransformation Products” (J Nat Prod, 2021).

Key:
[1] = system: BV-2; assay: Anti-neuroinflammatory activity in mouse BV-2 cells assessed as inhibition of LPS-induced NO production incubated for 48 hrs by Griess reagent based assay; type: functional, cell-based; details: BV-2, 48 h
[2] = Cytotoxicity against mouse BV-2 cells assessed as cell viability by MTT assay; type: cell-based; design: concentration or dose not given beside the values; details: read-out: Activity

Compound | IC50 [1] [µM] | viability [2] [%]
CC(=O)[C@@H]1CC[C@]2(C(=O)O)CC[C@]3(C)[C@H](CC[C@@H]4[C@@]5(C)CCC(=O)C(C)(C)[C@@H]5C[C@H](O)[C@]43C)[C@@H]12 | 53.9 | 106
C=C(C)[C@@H]1CC[C@]2(C(=O)O)CC[C@]3(C)[C@H](CC[C@@H]4[C@@]5(C)CCC(=O)C(C)(C)[C@@H]5C[C@H](O)[C@]43C)[C@@H]12 | 34.6 | 99.2
C=C(C)[C@@H]1CC[C@]2(C(=O)O)CC[C@]3(C)[C@H](CC[C@@H]4[C@@]5(C)CC(=O)[C@H](O)C(C)(C)[C@@H]5C[C@H](O)[C@]43C)[C@@H]12 | > 100 | 97.3
C=C(C)[C@@H]1CC[C@]2(C(=O)O)CC[C@]3(C)[C@H](C[C@H](O)[C@@H]4[C@@]5(C)CCC(=O)C(C)(C)[C@@H]5C[C@H](O)[C@]43C)[C@@H]12 | > 100 | 88.4
CC(=O)OC[C@H](C)[C@@H]1CC[C@]2(C(=O)O)CC[C@]3(C)[C@H](CC[C@@H]4[C@@]5(C)CCC(=O)C(C)(C)[C@@H]5C[C@H](O)[C@]43C)[C@@H]12 | 61.2 | 99.5
C=C(C)[C@@H]1C[C@@H](O)[C@]2(C(=O)O)CC[C@]3(C)[C@H](CC[C@@H]4[C@@]5(C)CCC(=O)C(C)(C)[C@@H]5C[C@H](O)[C@]43C)[C@@H]12 | 37.2 | 101
C=C(C)[C@@H]1CC[C@]2(C(=O)O)C[C@H](O)[C@]3(C)[C@H](CC[C@@H]4[C@@]5(C)CCC(=O)C(C)(C)[C@@H]5C[C@H](O)[C@]43C)[C@@H]12 | 93.7 | 101
C=C(COC(C)=O)[C@@H]1CC[C@]2(C(=O)O)C[C@H](O)[C@]3(C)[C@H](CC[C@@H]4[C@@]5(C)CCC(=O)C(C)(C)[C@@H]5CC[C@]43C)[C@@H]12 | 76.6 | 101
C=C(C)[C@@H]1CC[C@]2(C(=O)O)C[C@H](O)[C@]3(C)[C@H](C[C@@H](O)[C@@H]4[C@@]5(C)CCC(=O)C(C)(C)[C@@H]5CC[C@]43C)[C@@H]12 | > 100 | 103
C=C(C)[C@@H]1CC[C@]2(C(=O)O)C[C@H](O)[C@]3(C)[C@H](CC[C@@H]4[C@@]5(C)CCC(=O)[C@@](C)(CO)[C@@H]5C[C@H](O)[C@]43C)[C@@H]12 | 58.3 | 105
C=C(C)[C@@H]1CC[C@]2(C(=O)O)C[C@H](O)[C@]3(C)[C@H](CC[C@@H]4[C@@]5(C)CCC(=O)[C@@](C)(COC(C)=O)[C@@H]5CC[C@]43C)[C@@H]12 | 42.4 | 102
C=C(CO)[C@@H]1CC[C@]2(C(=O)O)CC[C@]3(C)[C@H](CC[C@@H]4[C@@]5(C)CCC(=O)C(C)(C)[C@@H]5CC[C@]43C)[C@@H]12 | 35.1 | 104
CC(=O)OC[C@@H](C)[C@@H]1CC[C@]2(C(=O)O)CC[C@]3(C)[C@H](CC[C@@H]4[C@@]5(C)CCC(=O)C(C)(C)[C@@H]5C[C@H](O)[C@]43C)[C@@H]12 | 66.3 | 98.8
C=C(C)[C@@H]1CC[C@]2(C(=O)O)CC[C@]3(C)[C@H](CC[C@@H]4[C@@]5(C)C[C@@H](O)C(=O)C(C)(C)[C@@H]5C[C@H](O)[C@]43C)[C@@H]12 | 64.8 | 106
C=C(COO)[C@@H]1CC[C@]2(C(=O)O)CC[C@]3(C)[C@H](CC[C@@H]4[C@@]5(C)CCC(=O)C(C)(C)[C@@H]5CC[C@]43C)[C@@H]12 | 24.8 | 101
C=C(C)[C@@H]1CC[C@]2(C(=O)O)CC[C@]3(C)[C@H](CC[C@@H]4[C@@]5(C)CCC(=O)C(C)(C)[C@@H]5CC[C@]43C)[C@@H]12 [BETUNOLIC ACID] | 60.7 | 102

These reach a lower IC50 [1]. Values come first.

IC50 [1] [µM] | Compound | viability [2] [%]
21.4 | CNC(=N)NCCC[C@H](N)C(=O)O [TILARGININE] | 110
15.6 | C=C(C)[C@@H]1CC[C@]2(C(=O)O)CC[C@]3(C)[C@H](CC[C@@H]4[C@@]5(C)CCC(=O)[C@@](C)(CO)[C@@H]5C[C@H](O)[C@]43C)[C@@H]12 | 110
11.1 | C=C(CO)[C@@H]1CC[C@]2(C(=O)O)CC[C@]3(C)[C@H](CC[C@@H]4[C@@]5(C)CCC(=O)C(C)(C)[C@@H]5C[C@H](O)[C@]43C)[C@@H]12 | 103
10.3 | C=C(C)[C@@H]1CC[C@]2(C(=O)O)CC[C@]3(C)[C@H](CC[C@@H]4[C@@]5(C)CCC(=O)C(C)(C)[C@@H]5C[C@H](OC(C)=O)[C@]43C)[C@@H]12 | 102
5.38 | C=C(COC(C)=O)[C@@H]1CC[C@]2(C(=O)O)CC[C@]3(C)[C@H](CC[C@@H]4[C@@]5(C)CCC(=O)C(C)(C)[C@@H]5C[C@H](O)[C@]43C)[C@@H]12 | 109
4.69 | C=C(C)[C@@H]1CC[C@]2(C(=O)O[C@@H]3O[C@H](CO)[C@@H](O)[C@H](O)[C@H]3O)CC[C@]3(C)[C@H](CC[C@@H]4[C@@]5(C)CCC(=O)C(C)(C)[C@@H]5C[C@H](O)[C@]43C)[C@@H]12 | 101
1.55 | C=C(C)[C@@H]1CC[C@]2(C(=O)O)CC[C@]3(C)[C@H](CC[C@@H]4[C@@]5(C)CCC(=O)[C@@](C)(COC(C)=O)[C@@H]5C[C@H](O)[C@]43C)[C@@H]12 | 103
